Drawing on publication PMC7180948, “New Insights into 4-Anilinoquinazolines as Inhibitors of Cardiac Troponin I–Interacting Kinase (TNNi3K)” (Molecules, 2020), this text covers inhibition for one compound.

Common to all, as to test: biochemical
What all share (design): KINOMEscan competition binding panel (Eurofins DiscoverX), single concentration, % inhibition
Common to all, as to details: read-out: 7 at 1 µM % inhibition

One assay concerns the target ALK(L1196M) (Homo sapiens, UniProt Q9UM73, L1196M). An outline of the steps: (§1)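 Kinome-wide profiling (KINOMEscan, >400 human kinases) was run at 1 µM compound.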
The next assay addresses CAMK1 (Homo sapiens, UniProt Q14012). The gist of the method: as §1
A further assay deals with T1, CDC2L1 (Homo sapiens, UniProt P21127).
T1 construct: gene CDK11B
An outline of the steps:
as §1

The target of another assay is CSNK1D (Homo sapiens, UniProt P48730). The gist of the method:
as §1

A further assay has as its target CSNK1E (Homo sapiens, UniProt P49674). The gist of the method: as §1
A further assay concerns the target T2, DRAK1 (Homo sapiens, UniProt Q9UEE5).
T2 construct: gene STK17A
An outline of the steps:
as §1

For a further assay, the target named is EGFR (Homo sapiens, UniProt P00533). The gist of the method:
as §1

Another assay concerns the target EGFR(S752-I759del) (Homo sapiens, UniProt P00533, DEL752-759). An outline of the steps:
as §1

For a further assay, the target named is EPHA4 (Homo sapiens, UniProt P54764). The gist of the method:
as §1

In another assay the target is T3, ERK2 (Homo sapiens, UniProt P28482).
T3 construct: gene MAPK1
An outline of the steps: as §1

The next assay addresses GRK2 (Homo sapiens, UniProt P25098). The gist of the method: as §1
In a further assay the target is HIPK2 (Homo sapiens, UniProt Q9H2X6). An outline of the steps: as §1
For the next assay, the target named is T4, JNK1 (Homo sapiens, UniProt P45983).
T4 construct: gene MAPK8
An outline of the steps:
as §1

In another assay the target is LIMK2 (Homo sapiens, UniProt P53671). An outline of the steps:
as §1

The target of another assay is MAP4K2 (Homo sapiens, UniProt Q12851). The gist of the method:
as §1

A further assay deals with T5, MEK1 (Homo sapiens, UniProt Q02750).
T5 construct: gene MAP2K1
An outline of the steps: as §1

In the next assay the target is NEK10 (Homo sapiens, UniProt Q6ZWH5). An outline of the steps: as §1
For the next assay, the target named is NEK4 (Homo sapiens, UniProt P51957). An outline of the steps: as §1
Sequence of NEK4 (P51957 whole entry): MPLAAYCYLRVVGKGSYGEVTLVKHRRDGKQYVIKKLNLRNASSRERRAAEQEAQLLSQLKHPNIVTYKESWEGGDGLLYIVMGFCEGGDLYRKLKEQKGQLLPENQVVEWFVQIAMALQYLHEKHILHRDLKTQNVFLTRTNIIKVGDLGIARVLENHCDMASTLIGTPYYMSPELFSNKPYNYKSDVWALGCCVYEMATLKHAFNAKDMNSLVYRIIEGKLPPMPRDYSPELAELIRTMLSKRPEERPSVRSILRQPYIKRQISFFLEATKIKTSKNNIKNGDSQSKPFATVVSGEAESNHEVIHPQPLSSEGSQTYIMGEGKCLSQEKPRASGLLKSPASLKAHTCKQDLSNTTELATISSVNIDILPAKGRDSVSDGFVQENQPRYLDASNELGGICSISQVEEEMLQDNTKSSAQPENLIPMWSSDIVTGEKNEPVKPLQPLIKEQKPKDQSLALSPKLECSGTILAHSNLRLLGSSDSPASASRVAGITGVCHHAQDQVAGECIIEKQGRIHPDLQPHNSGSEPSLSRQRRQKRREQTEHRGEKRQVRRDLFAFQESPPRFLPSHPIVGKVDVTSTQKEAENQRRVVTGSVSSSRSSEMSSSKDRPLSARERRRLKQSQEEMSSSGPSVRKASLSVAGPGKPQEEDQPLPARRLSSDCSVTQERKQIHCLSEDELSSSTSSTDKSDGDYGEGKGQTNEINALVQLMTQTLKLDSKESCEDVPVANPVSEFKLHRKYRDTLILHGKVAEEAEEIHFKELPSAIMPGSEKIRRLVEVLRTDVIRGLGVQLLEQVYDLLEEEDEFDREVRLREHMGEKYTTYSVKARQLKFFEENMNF
The target in the next assay is PIK3CA(C420R) (Homo sapiens, UniProt P42336, C420R). An outline of the steps:
as §1

For the next assay, the target named is T6, PKAC-alpha (Homo sapiens, UniProt P17612).
T6 construct: gene PRKACA
The gist of the method:
as §1

The target in the next assay is SRMS (Homo sapiens, UniProt Q9H3Y6). The gist of the method: as §1
The next assay concerns the target SYK (Homo sapiens, UniProt P43405). An outline of the steps: as §1
The target in another assay is TAOK1 (Homo sapiens, UniProt Q7L7X3). An outline of the steps: as §1
Sequence of TAOK1 (Q7L7X3 whole entry): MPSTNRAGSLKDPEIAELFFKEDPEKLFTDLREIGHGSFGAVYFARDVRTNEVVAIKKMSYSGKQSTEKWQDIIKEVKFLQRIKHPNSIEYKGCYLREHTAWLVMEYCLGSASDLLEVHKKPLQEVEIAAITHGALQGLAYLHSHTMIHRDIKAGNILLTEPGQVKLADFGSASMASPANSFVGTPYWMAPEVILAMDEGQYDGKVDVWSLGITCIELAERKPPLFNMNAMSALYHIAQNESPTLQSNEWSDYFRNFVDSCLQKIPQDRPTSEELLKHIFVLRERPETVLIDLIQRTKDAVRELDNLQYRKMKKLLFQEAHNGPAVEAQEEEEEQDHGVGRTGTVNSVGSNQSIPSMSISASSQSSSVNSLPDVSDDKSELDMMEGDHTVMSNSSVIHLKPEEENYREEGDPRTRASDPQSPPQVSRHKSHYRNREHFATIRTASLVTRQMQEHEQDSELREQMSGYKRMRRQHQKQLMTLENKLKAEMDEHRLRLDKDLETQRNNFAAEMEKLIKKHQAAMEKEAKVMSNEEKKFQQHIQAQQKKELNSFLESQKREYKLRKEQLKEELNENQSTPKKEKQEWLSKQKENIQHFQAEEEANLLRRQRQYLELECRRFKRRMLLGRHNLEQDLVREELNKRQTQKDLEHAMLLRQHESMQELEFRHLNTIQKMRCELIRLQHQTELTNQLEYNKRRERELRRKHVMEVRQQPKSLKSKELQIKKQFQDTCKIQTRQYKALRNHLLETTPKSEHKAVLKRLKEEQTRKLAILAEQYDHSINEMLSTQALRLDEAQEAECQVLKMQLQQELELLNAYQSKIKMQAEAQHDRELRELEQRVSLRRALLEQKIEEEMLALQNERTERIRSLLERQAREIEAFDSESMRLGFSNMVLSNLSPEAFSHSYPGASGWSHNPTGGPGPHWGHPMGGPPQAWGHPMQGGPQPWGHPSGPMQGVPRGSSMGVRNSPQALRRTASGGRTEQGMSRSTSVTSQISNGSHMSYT
The next assay has as its target VRK2 (Homo sapiens, UniProt Q86Y07). The gist of the method:
as §1

Molecules are shown by their SMILES.

Sequence of CSNK1D (P48730 whole entry): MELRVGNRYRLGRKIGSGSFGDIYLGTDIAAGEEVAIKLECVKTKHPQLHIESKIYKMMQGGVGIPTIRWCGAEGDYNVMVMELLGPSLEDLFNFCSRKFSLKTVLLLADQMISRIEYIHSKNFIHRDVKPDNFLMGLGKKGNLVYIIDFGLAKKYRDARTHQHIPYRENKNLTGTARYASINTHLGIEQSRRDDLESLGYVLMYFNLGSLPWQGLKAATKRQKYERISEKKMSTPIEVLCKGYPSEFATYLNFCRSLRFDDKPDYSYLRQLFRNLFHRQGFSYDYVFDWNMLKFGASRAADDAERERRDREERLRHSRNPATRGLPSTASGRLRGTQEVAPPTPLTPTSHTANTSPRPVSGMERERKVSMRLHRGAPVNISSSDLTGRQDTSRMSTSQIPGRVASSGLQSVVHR
Sequence of EGFR (P00533 whole entry): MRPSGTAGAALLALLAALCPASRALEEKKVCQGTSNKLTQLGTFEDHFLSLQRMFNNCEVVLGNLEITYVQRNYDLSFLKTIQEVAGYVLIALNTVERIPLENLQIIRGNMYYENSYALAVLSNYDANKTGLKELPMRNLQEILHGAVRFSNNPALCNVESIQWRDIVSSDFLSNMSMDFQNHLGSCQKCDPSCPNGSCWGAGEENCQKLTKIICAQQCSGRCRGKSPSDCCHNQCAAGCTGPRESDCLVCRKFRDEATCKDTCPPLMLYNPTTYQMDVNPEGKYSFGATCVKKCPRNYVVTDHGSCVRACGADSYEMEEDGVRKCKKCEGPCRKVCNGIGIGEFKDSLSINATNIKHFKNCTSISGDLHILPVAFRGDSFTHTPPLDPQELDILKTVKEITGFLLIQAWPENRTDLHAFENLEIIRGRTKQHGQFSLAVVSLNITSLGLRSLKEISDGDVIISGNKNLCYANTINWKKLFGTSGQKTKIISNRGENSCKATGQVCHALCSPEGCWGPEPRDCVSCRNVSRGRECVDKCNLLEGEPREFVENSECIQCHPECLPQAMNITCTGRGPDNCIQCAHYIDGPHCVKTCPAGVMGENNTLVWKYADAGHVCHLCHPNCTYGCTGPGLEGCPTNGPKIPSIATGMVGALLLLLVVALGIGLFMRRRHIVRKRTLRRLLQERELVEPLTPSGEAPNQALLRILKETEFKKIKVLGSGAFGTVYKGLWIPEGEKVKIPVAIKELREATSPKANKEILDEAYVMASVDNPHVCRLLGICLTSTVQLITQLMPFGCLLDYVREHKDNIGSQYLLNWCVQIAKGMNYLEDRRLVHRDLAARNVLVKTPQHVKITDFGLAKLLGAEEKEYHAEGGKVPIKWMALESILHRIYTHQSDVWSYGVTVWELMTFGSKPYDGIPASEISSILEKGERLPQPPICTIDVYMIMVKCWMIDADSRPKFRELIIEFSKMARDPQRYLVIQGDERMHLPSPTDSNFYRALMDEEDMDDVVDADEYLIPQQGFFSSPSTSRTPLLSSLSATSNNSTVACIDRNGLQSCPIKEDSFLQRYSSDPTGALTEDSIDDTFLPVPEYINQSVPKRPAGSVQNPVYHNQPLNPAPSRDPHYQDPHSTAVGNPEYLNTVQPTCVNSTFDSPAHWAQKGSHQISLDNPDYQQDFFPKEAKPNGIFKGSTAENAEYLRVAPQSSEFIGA
Sequence of LIMK2 (P53671 whole entry): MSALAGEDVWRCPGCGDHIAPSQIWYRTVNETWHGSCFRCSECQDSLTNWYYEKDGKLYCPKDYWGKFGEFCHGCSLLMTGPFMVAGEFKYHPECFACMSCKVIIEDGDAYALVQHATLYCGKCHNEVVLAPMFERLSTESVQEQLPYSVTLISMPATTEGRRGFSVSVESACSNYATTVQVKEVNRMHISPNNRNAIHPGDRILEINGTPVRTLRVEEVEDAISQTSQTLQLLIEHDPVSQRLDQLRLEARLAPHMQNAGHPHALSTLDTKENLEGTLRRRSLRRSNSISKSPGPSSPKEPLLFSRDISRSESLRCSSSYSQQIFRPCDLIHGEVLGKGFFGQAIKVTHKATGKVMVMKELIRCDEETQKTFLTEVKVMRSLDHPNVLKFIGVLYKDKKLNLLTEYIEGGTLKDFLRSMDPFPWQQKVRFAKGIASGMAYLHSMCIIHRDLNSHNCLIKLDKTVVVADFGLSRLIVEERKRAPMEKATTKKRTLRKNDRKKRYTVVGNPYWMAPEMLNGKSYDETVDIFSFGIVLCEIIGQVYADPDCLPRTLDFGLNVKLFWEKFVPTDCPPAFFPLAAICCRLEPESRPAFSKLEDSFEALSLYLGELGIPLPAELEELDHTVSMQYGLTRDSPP
Sequence of GRK2 (P25098 whole entry): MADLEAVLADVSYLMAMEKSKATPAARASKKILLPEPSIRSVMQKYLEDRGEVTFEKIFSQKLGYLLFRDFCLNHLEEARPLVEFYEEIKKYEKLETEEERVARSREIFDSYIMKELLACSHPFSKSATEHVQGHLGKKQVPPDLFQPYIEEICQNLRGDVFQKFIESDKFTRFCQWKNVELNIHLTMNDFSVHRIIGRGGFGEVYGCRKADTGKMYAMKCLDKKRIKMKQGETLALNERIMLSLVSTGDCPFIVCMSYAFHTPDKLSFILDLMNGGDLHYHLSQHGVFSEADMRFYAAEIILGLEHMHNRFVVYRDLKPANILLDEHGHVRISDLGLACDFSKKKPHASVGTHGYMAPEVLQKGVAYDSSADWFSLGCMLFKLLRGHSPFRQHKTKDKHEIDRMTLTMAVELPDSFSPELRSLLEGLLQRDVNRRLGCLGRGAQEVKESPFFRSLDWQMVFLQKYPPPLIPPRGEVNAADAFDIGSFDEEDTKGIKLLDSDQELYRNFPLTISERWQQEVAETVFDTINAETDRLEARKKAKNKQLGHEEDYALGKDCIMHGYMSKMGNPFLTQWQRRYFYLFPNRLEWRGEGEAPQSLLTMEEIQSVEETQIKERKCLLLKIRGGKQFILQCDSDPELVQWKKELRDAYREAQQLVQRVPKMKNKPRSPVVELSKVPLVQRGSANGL

As a reminder, the inhibition is the percentage by which the read-out fell short of the control. `CNS(=O)(=O)c1ccc(N(C)C)c(Nc2ncnc3cc(OC)c(OC)cc23)c1` [compound 7, 3-((6,7-dimethoxyquinazolin-4-yl)amino)-4-(dimethylamino)-N-methylbenzenesulfonamide]: the inhibition at 1 µM turned out to be 5% at ALK(L1196M); 0% at CAMK1; 0% on CDC2L1; 0% on CSNK1D; 0% at CSNK1E; 0% on DRAK1. Moreover, the inhibition at 1 µM at EGFR came to 0%; on EGFR(S752-I759del), 29%; at EPHA4 it was 0%; on ERK2, 0%; at GRK2, 65%; on HIPK2, 0%. The inhibition at 1 µM at JNK1 was 8%; on LIMK2, 0%; at MAP4K2, 41%; at MEK1 it was 35%; at NEK10, 0%; on NEK4, 12%. Further, the inhibition at 1 µM on PIK3CA(C420R) came out at 5%; at PKAC-alpha, 6%; at SRMS, 41%; at SYK, 0%; on TAOK1, 25%; on VRK2 it was 29%.
